Earlier results on 2 compounds are cited in US20260248820A1, “USES OF HYDROGENATED CANNABIDIOL (H4CBD) AND ADVANCED METABOLIC SYNDROME” (The Regents of the University of California, priority 2022, published 2026).

Bounds are passed on as bounds.

For one series, the system named is rodents. The following applies: cited from earlier work.
For series [1], the system named is endocannabinoid receptors. As to conditions: cited from earlier work.
For series [2], the system named is diet-induced obese (DIO) and non-obese diabetic mice. As to conditions: cited from earlier work.
For series [3] the following is noted: clinical; cited from earlier work.
The conditions of series [4]: rats without underlying metabolic dysfunction; cited from earlier work.
For the next series, the system named is PTZ-induced seizure. As to conditions: rats; cited from earlier work.

Turning to `C=C(C)[C@@H]1CCC(C)=C[C@H]1c1c(O)cc(CCCCC)cc1O` [CBD, Cannabidiol], the Documented toxicity with rodents is reported as more than 600 mg/kg. Further, in series [1], the “Affinity for the endocannabinoid receptors responsible for cannabis intoxication” value is reported as “little affinity”. Further, the Incidence of diabetes result in series [2] is reported as “reduced the incidence of diabetes”. Also, the “Effects of high doses administered clinically” value in series [3] is “anorexic and diarrheal effects”. Moreover, in series [4], the Body mass gain result is reported as “inhibit body mass gain”.
Consider `CCCCCc1cc(O)c([C@@H]2C=C(C)CC[C@H]2C(C)C)c(O)c1` [H2CBD, dihydrocannabidiol], for which the “Reduction of PTZ-induced seizure frequency and severity” value with PTZ-induced seizure is on record as “equal effectiveness to that of CBD”.
